Results from patent US20180021288A1, “Neuroprotection in Demyelinating Diseases” (Biogen MA Inc., priority 2010, published 2018).
Where a name gives a salt, the structure may show the parent alone. Read-outs that look alike come from different tables or passages of the source.

What was measured:
MOG-EAE [1] = test: DMF/GA co-therapy during short term (acute) course of MOG-EAE (Examples 3 and 8); assay type: in vivo, mice; conditions: for macrophage/microglia in EAE lesions: day 26 p.i., FIG. 13; for Incidence: pooled data from three experiments
Description: The treatment groups were as follows:
1) Mice immunized with 200 μg MOG/CFA (complete Freund's adjuvant)+200 ng PTX (pertussis toxin)+vehicle (methocel).
2) Mice immunized with 200 μg MOG/CFA and 50 μg GA+vehicle.
In the acute disease phase (day 26 or day 18 p.i., respectively), parameters of inflammation as well as CNS tissue integrity were analyzed. To this end, 12 week wild-type or C57BL/6 mice were actively immunized with […] of MOG peptide 35-55 and pertussis toxin. On day 18 or 26 p.i., histochemistry was performed to identify T cells (CD3 immunohistochemistry), macrophages/microglia (Mac-3), demyelination (Luxol Fast Blue staining), and axonal loss (Bielschowsky silver impregnation). Histological changes were quantified by a blinded observer counting six visual fields on spinal cord cross sections comprising cervical, thoracic and lumbar spinal cord. Statistical evaluations were performed by Kruskal-Wallis test or t-test. ** p<0.01; *** p<0.001.

[2] = not given; remark: listed apart in the source
MOG-EAE [3] = test: DMF/IFN-beta co-therapy in MOG-EAE (Examples 4 and 8); assay type: in vivo, mice; conditions: DMF 15 mg/kg p.o.; for Incidence: FIG. 11, IFN-beta 10,000 U s.c. e.o.d; for mean clinical EAE score / clinical disease course: short-term course, IFN-beta 10,000 U s.c., FIG. 11, FIG. 15
MOG-EAE [4] = test: DMF/GA co-therapy during chronic MOG-EAE (Example 3); assay type: in vivo, mice; conditions: for mean clinical EAE score during the chronic phase / onset of EAE symptoms: FIG. 4; for infiltration by T cells / number of infiltrating macrophages: chronic MOG-EAE; for infiltration by T cells: FIG. 7; for number of infiltrating macrophages: FIG. 8; for axonal loss and destruction: chronic phase, FIG. 9
Description: The treatment groups were as follows: 1) Mice immunized with 200 μg MOG/CFA (complete Freund's adjuvant)+200 ng PTX (pertussis toxin)+vehicle (methocel). 2) Mice immunized with 200 μg MOG/CFA and 50 μg GA+vehicle. […] Long term experiment: additional boost on day 28 p.i.

MOG-EAE [5] = test: Efficacy of DMF in chronic MOG-EAE (Example 1); assay type: in vivo, mouse
Text: See also, Schilling et al., “Fumaric Acid Esters Are Effective in Chronic Experimental Autoimmune Encephalomyelitis and Supress Macrophage Infiltration,” Clinical and Experimental Immunology, Vol. 145, No. 1, pp. 101-107 (2006).

MOG-EAE [6] = conditions: in vivo; cited from earlier work
MOG-EAE [7] = conditions: 100 or 500 mcg glatiramer acetate co-injected with MOG antigen; FIG. 3
Text: In this experiment mice were co-injected with glatiramer acetate and the MOG antigen. Specifically, a control group received MOG alone, while two experimental groups received doses of 100 or 500 mcg glatiramer acetate.

[8] = IFN-beta-1a study, healthy volunteers, DMF 240 mg tid
[9] = GA study, healthy volunteers, DMF 240 mg tid
[10] = FIG. 4, single experiment, GA 50 μg, DMF 15 mg/kgBW
[11] = FIG. 5, pooled data from two experiments (n=12 per group)

In the case of `COC(=O)/C=C/C(=O)OC` [DMF, Dimethyl fumarate], the “most common adverse events” value (IFN-beta-1a study) is reported as “flushing”, the new safety signals (IFN-beta-1a study) is reported as “no new safety signals” and the “Any AE” value [8] is reported as 71%. It also gave a Diarrhea [8] of 0%, a Flushing [8] of 50% and a Headache [8] of 13%. For the same molecule, the Nausea [8] was 4%, the Paresthesia [8] was 21% and the Pruritus [8] was 4%. For the same molecule, the Influenza-like illness (human, in vivo) was 0%, the “macrophage/microglia in EAE lesions” value (MOG-EAE [1]) was “reduction of macrophage/microglia” and the “macrophage/microglia in EAE lesions” value (MOG-EAE [1]; listed as DMF alone) was “efficiently reduces”. The Incidence (MOG-EAE [1]; short term course) was 11/18, the “mean clinical EAE score / clinical disease course” value (MOG-EAE [1]; short term course, FIG. 10A and 10B) was “greater than that of GA” and the “most common adverse events” value ([2]; GA study) was “flushing”. For the same molecule, the new safety signals ([2]; GA study) was “no new safety signals”, the “Any AE” value [2, 9] was 84% and the Diarrhea [2, 9] was 8%. The Flushing [2, 9] was 76%, the Headache [2, 9] was 12% and the Nausea [2, 9] was 8%. For the same molecule, the Paresthesia [2, 9] was 32%, the Pruritus [2, 9] was 28% and the “subjects discontinued due to adverse event” value ([2]; GA study, mild erythematous facial nodule (DMF alone), mild nausea (DMF+GA)) was “one”. The Influenza-like illness ([2]; human, in vivo) was 0%, the Incidence (MOG-EAE [3]) was 6/6 and the “mean clinical EAE score / clinical disease course” value (MOG-EAE [3]) was “exacerbated the EAE compared to the methocel controls”. For the same molecule, the Incidence (MOG-EAE [4]; [10]) was 6/6, the “mean clinical EAE score during the chronic phase” value (MOG-EAE [4]; GA 50 μg, DMF 15 mg/kgBW) was “little if any effect” and the “onset of EAE symptoms” value (MOG-EAE [4]; GA 50 μg, DMF 15 mg/kgBW) was “delayed”. The Incidence (MOG-EAE [4]; [11]) was 9/12, the “infiltration by T cells” value (MOG-EAE [4]) was “neither GA nor DMF reduces” and the “number of infiltrating macrophages” value (MOG-EAE [4]) was “neither GA nor DMF alone does so”. For the same molecule, the “axonal loss and destruction” value (MOG-EAE [4]) was “reduce axonal loss and destruction”, the mean clinical score (MOG-EAE [5]; DMF 15 mg/kg twice daily via oral gavage, FIG. 1) was “reduced” and the T-cell infiltration (MOG-EAE [5]; mouse, in vivo) was “without suppressing”. The “efficacy in chronic MOG-EAE” value (MOG-EAE [5]; mouse, in vivo) was “effective”, the macrophage infiltration (MOG-EAE [5]; mouse, in vivo) was “suppress” and the demyelination (MOG-EAE [5]; spinal cord tissue, FIG. 2B) was “reduced”.

In the case of “L-glutamic acid polymer with L-alanine, L-lysine and L-tyrosine, acetate (salt) [GA]”, the Incidence (MOG-EAE [1]; short term course) is given as 13/18, the “prevention of clinical and histological signs of EAE in combination with atorvastatin” value (MOG-EAE [6]) is given as “synergize with atorvastatin” and the mean clinical score (MOG-EAE [7]) is given as “reduced the mean clinical score of the 100 or 500 mcg groups in a dose-dependent manner”. For the same molecule, the Incidence (MOG-EAE [4]; [10]) was 6/6, the “mean clinical EAE score during the chronic phase” value (MOG-EAE [4]; GA 50 μg, DMF 15 mg/kgBW) was “intermediate effect” and the “onset of EAE symptoms” value (MOG-EAE [4]; GA 50 μg, DMF 15 mg/kgBW) was “delayed”. For the same molecule, the Incidence (MOG-EAE [4]; [11]) was 11/12, the “infiltration by T cells” value (MOG-EAE [4]) was “neither GA nor DMF reduces” and the “number of infiltrating macrophages” value (MOG-EAE [4]) was “neither GA nor DMF alone does so”. The “infiltrates (inflammatory index, HE staining of spinal cords)” value (MOG-EAE [4]; chronic disease phase, FIG. 6) was “reduces infiltrates” and the “axonal loss and destruction” value (MOG-EAE [4]) was “reduce axonal loss and destruction”.

B1: IFN-beta: murine interferon beta, 10,000 U s.c. (protein, UniProt P01575 22-182, looked up)
Interferon beta: INYKQLQLQERTNIRKCQELLEQLNGKINLTYRADFKIPMEMTEKMQKSYTAFAIQEMLQNVFLVFRNNFSSTGWNETIVVRLLDELHQQTVFLKTVLEEKQEERLTWEMSSTALHLKSYYWRVQRYLKLMKYNSYAWMVVRAEIFRNFLIIRRLTRNFQN
In the case of B1, the Incidence (MOG-EAE [3]) is reported as 5/6 and the “mean clinical EAE score / clinical disease course” value (MOG-EAE [3]) is reported as “exacerbated the EAE compared to the methocel controls”.
